These results are taken from ChEMBL document CHEMBL1123114, “Structure-activity relationships of arylimidazopyridine cardiotonics: discovery and inotropic activity of 2-[2-methoxy-4-(methylsulfinyl)phenyl]-1H-imidazo[4,5-c]pyridine” (1985).

One may read the ED50 as the dose that gives a 50% effect, or the effect in half of the subjects. Lower therefore signals greater potency.

The species entered for one experiment is Felis catus. Description: Response ratio = (percent increase to drug)/(percent increase to 10 E-5 M isoproterenol). In kind it is functional.
Settings: not given
For `COc1cc(SC)ccc1-c1nc2c[nH]cnc-2n1`, the Response ratio was determined as 0.12.
Consider `Fc1ccccc1-c1nc2cc[nH]cc-2n1`, for which the Response ratio stood at 0.1.
Consider `c1ccc(Sc2ccc(-c3nc4cc[nH]cc-4n3)cc2)cc1`, for which the Response ratio was determined as 0.31.
With `COc1ccc(-c2nc3cc[nH]cc-3n2)c(OCCCSC)c1`, the Response ratio is on record as 0.25.
`CCOc1cc(SC)ccc1-c1nc2cc[nH]cc-2n1`: the Response ratio is 0.3.
`COc1cc(-c2nc3cc[nH]cc-3n2)cc(OC)c1OC`: the Response ratio came to 0.12.
Same read-out and setting: the value for `CC[S+]([O-])c1ccc(-c2nc3cc[nH]cc-3n2)c(OC)c1` (centres undefined) was 0.5; that for `Clc1cc(Cl)cc(-c2nc3cc[nH]cc-3n2)c1` was 0.21.
As to `COc1cccc(-c2nc3cc[nH]cc-3n2)c1`, the Response ratio was determined as 0.21.
Turning to `COc1cc(OC)c(-c2nc3cc[nH]cc-3n2)cc1OC`, the Response ratio worked out at 0.12.
The same measure, in the same setting: under `COc1ccc(-c2nc3cc[nH]cc-3n2)c(OCC[S+]([O-])c2ccccc2)c1` (centres undefined) stands 0.1; under `COc1cc(OC)c(-c2nc3cc[nH]cc-3n2)c(OC)c1`, 0.04; under `COc1ccc(OC)c(-c2nc3cc[nH]cc-3n2)c1`, 0.14.
Still for that read-out and setting: under `COc1cc(I)ccc1-c1nc2cc[nH]cc-2n1` stands 0.54.
As for `COCCOc1cc(OC)ccc1-c1nc2cc[nH]cc-2n1`, the Response ratio came to 0.12.
On to `Cc1ccc(-c2nc3cc[nH]cc-3n2)cc1`, for which the Response ratio is listed as -0.04.
Take `Fc1cccc(-c2nc3cc[nH]cc-3n2)c1`: the Response ratio came to 0.17.
On to `CSc1ccc(-c2nc3cc[nH]cc-3n2)c(SC)c1`, for which the Response ratio is recorded as 0.18.
The same measure, in the same setting: under `COc1ccc(-c2nc3cc[nH]cc-3n2)c(C)c1` stands 0.26; under `COc1ccc(-c2nc3cc[nH]cc-3n2)c(OCCSc2ccccc2)c1`, 0.04.

A further experiment is filed under the species Felis catus. Nature of the experiment: Response ratio = (percent increase to drug)/(percent increase to 10 E-4 M isoproterenol). In kind it is functional.
Settings: not given
Regarding `COc1cc(SC)ccc1-c1nc2c[nH]cnc-2n1`, the Response ratio came out at 0.43.
In the case of `Fc1ccccc1-c1nc2cc[nH]cc-2n1`, the Response ratio was determined as 0.63.
Regarding `c1ccc(Sc2ccc(-c3nc4cc[nH]cc-4n3)cc2)cc1`, the Response ratio is recorded as 0.33.
Regarding `COc1ccc(-c2nc3cc[nH]cc-3n2)c(OCCCSC)c1`, the Response ratio is recorded as 0.41.
Still for that read-out and setting: the value for `CCOc1cc(SC)ccc1-c1nc2cc[nH]cc-2n1` was 0.68.
With `COc1cc(-c2nc3cc[nH]cc-3n2)cc(OC)c1OC`, the Response ratio amounted to 0.71.
With `CC[S+]([O-])c1ccc(-c2nc3cc[nH]cc-3n2)c(OC)c1` (centres undefined), the Response ratio is reported as 1.
For `Clc1cc(Cl)cc(-c2nc3cc[nH]cc-3n2)c1`, the Response ratio stood at 0.64.
Take `COc1cccc(-c2nc3cc[nH]cc-3n2)c1`: the Response ratio is listed as 1.58.
`COc1cc(OC)c(-c2nc3cc[nH]cc-3n2)cc1OC`: the Response ratio was 0.4.
As to `COc1ccc(-c2nc3cc[nH]cc-3n2)c(OCC[S+]([O-])c2ccccc2)c1` (centres undefined), the Response ratio is reported as -0.05.
For `COc1cc(OC)c(-c2nc3cc[nH]cc-3n2)c(OC)c1`, the Response ratio stood at 0.51.
The same measure, in the same setting: under `COc1ccc(OC)c(-c2nc3cc[nH]cc-3n2)c1` stands 0.96.
Regarding `COc1cc(I)ccc1-c1nc2cc[nH]cc-2n1`, the Response ratio stood at 0.82.
Same read-out and setting: the value for `COCCOc1cc(OC)ccc1-c1nc2cc[nH]cc-2n1` was 0.22.
On to `Cc1ccc(-c2nc3cc[nH]cc-3n2)cc1`, for which the Response ratio was determined as 0.96.
For the compound `Fc1cccc(-c2nc3cc[nH]cc-3n2)c1`, the Response ratio was 0.79.
As to `CSc1ccc(-c2nc3cc[nH]cc-3n2)c(SC)c1`, the Response ratio is recorded as 0.84.
The same measure, in the same setting: under `COc1ccc(-c2nc3cc[nH]cc-3n2)c(C)c1` stands 0.63.
Turning to `COc1ccc(-c2nc3cc[nH]cc-3n2)c(OCCSc2ccccc2)c1`, the Response ratio is recorded as 0.12.

In another experiment the test system is Canis familiaris. Description: Percent change in heart rate in anesthetized dog. Format: functional, Canis lupus familiaris.
Settings: not given
For `CS(=O)(=O)c1ccc(-c2nc3ccc[nH]c-3n2)cc1`, the Change turned out to be 8%.
Turning to `CCCOc1cc(SC)ccc1-c1nc2cc[nH]cc-2n1`, the Change was -3%.
In the case of `Cc1cccc(-c2nc3ccc[nH]c-3n2)c1`, the Change is on record as 18%.

The species named for the next experiment is Felis catus. Description: Compound tested for contractility in isolated cat papillary muscle at 10 e-5 M. Format: functional.
Settings: not given
In turn, `COc1cc(SC)ccc1-c1nc2c[nH]cnc-2n1` registered a Control of 109%.
Compound `Fc1ccccc1-c1nc2cc[nH]cc-2n1` had a Control of 107%.
`c1ccc(Sc2ccc(-c3nc4cc[nH]cc-4n3)cc2)cc1` returned a Control of 122%.
`COc1ccc(-c2nc3cc[nH]cc-3n2)c(OCCCSC)c1` gave a Control of 118%.
Compound `CCOc1cc(SC)ccc1-c1nc2cc[nH]cc-2n1` registered a Control of 122%.
For the compound `COc1cc(-c2nc3cc[nH]cc-3n2)cc(OC)c1OC`, the Control is 109%.
`CC[S+]([O-])c1ccc(-c2nc3cc[nH]cc-3n2)c(OC)c1` (centres undefined) displayed a Control of 136%.
The same measure, in the same setting: the value for `Clc1cc(Cl)cc(-c2nc3cc[nH]cc-3n2)c1` was 115%; that for `COc1cccc(-c2nc3cc[nH]cc-3n2)c1` was 115%; that for `COc1cc(OC)c(-c2nc3cc[nH]cc-3n2)cc1OC` was 108%.
In turn, `COc1ccc(-c2nc3cc[nH]cc-3n2)c(OCC[S+]([O-])c2ccccc2)c1` (centres undefined) gave a Control of 107%.
As to `COc1cc(OC)c(-c2nc3cc[nH]cc-3n2)c(OC)c1`, the Control is given as 103%.
In the case of `COc1ccc(OC)c(-c2nc3cc[nH]cc-3n2)c1`, the Control turned out to be 110%.
Still for that read-out and setting: under `COc1cc(I)ccc1-c1nc2cc[nH]cc-2n1` stands 139%; under `COCCOc1cc(OC)ccc1-c1nc2cc[nH]cc-2n1`, 109%; under `Cc1ccc(-c2nc3cc[nH]cc-3n2)cc1`, 97%.
Consider `Fc1cccc(-c2nc3cc[nH]cc-3n2)c1`, for which the Control was 112%.
For `CSc1ccc(-c2nc3cc[nH]cc-3n2)c(SC)c1`, the Control is 113%.
`COc1ccc(-c2nc3cc[nH]cc-3n2)c(C)c1`: the Control is listed as 119%.
`COc1ccc(-c2nc3cc[nH]cc-3n2)c(OCCSc2ccccc2)c1` registered a Control of 103%.

Another experiment concerns Canis familiaris. Nature of the experiment: Compound tested for contractility in anesthetized dog when administered intravenously. Format: functional. The following applies: Canis lupus familiaris, iv.
`CS(=O)(=O)c1ccc(-c2nc3ccc[nH]c-3n2)cc1`: it took a dose of 18 mg/kg to reach the 50% effect level (ED50).
Same read-out and setting: the value for `CCCOc1cc(SC)ccc1-c1nc2cc[nH]cc-2n1` was 1.2 mg/kg; that for `Cc1cccc(-c2nc3ccc[nH]c-3n2)c1` was 2.8 mg/kg.

For the next experiment, the system named is Canis familiaris. Nature of the experiment: Percent change in mean arterial blood pressure in anesthetized dog. In kind it is functional, Canis lupus familiaris.
Settings: not given
For `CS(=O)(=O)c1ccc(-c2nc3ccc[nH]c-3n2)cc1`, the Change is reported as -2%.
Consider `CCCOc1cc(SC)ccc1-c1nc2cc[nH]cc-2n1`, for which the Change was -62%.
Take `Cc1cccc(-c2nc3ccc[nH]c-3n2)c1`: the Change is reported as -27%.

For the next experiment, the species on record is Felis catus. Description: Compound tested for contractility in isolated cat papillary muscle at 10 e-4 M. In kind it is functional.
Settings: not given
The compound `COc1cc(SC)ccc1-c1nc2c[nH]cnc-2n1` came in with a Control of 131%.
Compound `Fc1ccccc1-c1nc2cc[nH]cc-2n1` displayed a Control of 145%.
On to `c1ccc(Sc2ccc(-c3nc4cc[nH]cc-4n3)cc2)cc1`, for which the Control is 124%.
As for `COc1ccc(-c2nc3cc[nH]cc-3n2)c(OCCCSC)c1`, the Control is 129%.
Turning to `CCOc1cc(SC)ccc1-c1nc2cc[nH]cc-2n1`, the Control was determined as 149%.
`COc1cc(-c2nc3cc[nH]cc-3n2)cc(OC)c1OC` yielded a Control of 151%.
The compound `CC[S+]([O-])c1ccc(-c2nc3cc[nH]cc-3n2)c(OC)c1` (centres undefined) gave a Control of 170%.
As for `Clc1cc(Cl)cc(-c2nc3cc[nH]cc-3n2)c1`, the Control worked out at 146%.
As for `COc1cccc(-c2nc3cc[nH]cc-3n2)c1`, the Control came to 214%.
The compound `COc1cc(OC)c(-c2nc3cc[nH]cc-3n2)cc1OC` registered a Control of 129%.
For the compound `COc1ccc(-c2nc3cc[nH]cc-3n2)c(OCC[S+]([O-])c2ccccc2)c1` (centres undefined), the Control worked out at 96%.
On the same count and under the same terms, under `COc1cc(OC)c(-c2nc3cc[nH]cc-3n2)c(OC)c1` stands 137%.
On the same count and under the same terms, the value for `COc1ccc(OC)c(-c2nc3cc[nH]cc-3n2)c1` was 169%; that for `COc1cc(I)ccc1-c1nc2cc[nH]cc-2n1` was 159%.
Regarding `COCCOc1cc(OC)ccc1-c1nc2cc[nH]cc-2n1`, the Control was 116%.
`Cc1ccc(-c2nc3cc[nH]cc-3n2)cc1` registered a Control of 196%.
Same read-out and setting: the value for `Fc1cccc(-c2nc3cc[nH]cc-3n2)c1` was 157%.
Same read-out and setting: under `CSc1ccc(-c2nc3cc[nH]cc-3n2)c(SC)c1` stands 161%.
In the case of `COc1ccc(-c2nc3cc[nH]cc-3n2)c(C)c1`, the Control stood at 145%.
Regarding `COc1ccc(-c2nc3cc[nH]cc-3n2)c(OCCSc2ccccc2)c1`, the Control turned out to be 109%.
